Experimental data reported in US9682999B2, “Benzofuran compounds for the treatment of hepatitis C virus infections” (Glaxo Group Limited, priority 2011, dated 2017).

Experiments:
[1] = Hepatocyte incubations, metabolic stability; type: in vitro ADME; design: dose or concentration left out as unconfirmed; conditions: cryopreserved human hepatocytes, 0.25×10^6 cells, up to 120 min, 37 C
Description: Hepatocyte incubations were conducted using cryopreserved hepatocytes purchased from CellzDirect (Durham, N.C.). Cryopreserved hepatocytes were removed from liquid nitrogen and thawed according to XenoTech's guidelines listed in “XenoTech Protocol for Thawing Cryopreserved Hepatocytes” using Hepatocyte Isolation Kit K2000 (Dec. 13, 2004). Hepatocytes were diluted to 1 million cells in 1 mL of Williams E media containing 25 mM HEPES buffer and 2 mM Glutamax.
Hepatocyte incubations were carried out in 96-well plates on an Eppendorf shaker at 350 rpm at 37 C. Reaction mixtures consisted of 0.25×10^6 cells and […] test compound (to maintain a 0.05% final DMSO concentration) in a final volume of 0.5 mL. An initial time-point (t0) was collected and subsequent aliquots were collected at 15, 30, 60, 90, and 120 min. Reactions were terminated by transferring […] of the incubation mixture into a 96-well plate containing […] of an organic mixture [acetonitrile and methanol (80:20)] at 4° C. Precipitated protein was removed by centrifugation and the resultant supernatant was transferred to a new 96-well polypropylene plate for LC/MS/MS analysis. Drug-free matrix control and 2 QC standards (phenacetin and propranolol) were included in each experiment and treated in the same manner as test compound.
Metabolic stability expressed as the percentage of parent compound remaining was calculated from the peak area ratio of compound remaining after incubation (tx) compared to the time zero (t0) incubation.
The half-life (t1/2) was calculated using the following equation: […]
Where K is the slope of the ln % remaining vs. time regression. Half-life values were only reported when at least 15% loss of parent compound was observed.

[2] = In vivo pharmacokinetic study, monkey; design: species or system cynomolgus monkey; conditions: for clearance / Vd / bioavailability: cynomolgus monkey; for clearance / Vd: intravenous; for Vd: read-out: Vss; for bioavailability: oral
Description: (§1) In vivo pharmacokinetic studies were conducted in mouse, rat, dog, or cynomolgus monkey to determine clearance, oral exposure and bioavailability (% F). Solution doses of the compounds were administered intravenously through catheters or orally by gavage. Blood samples were collected at the following time points (n=2 or 3/route/species): 0.083 (IV only), 0.167 (IV only), 0.25, 0.5, 1, 2, 4, 6, 8, 12, and 24 h. Non-compartmental pharmacokinetic parameters were determined using Phoenix Winnonlin 6.1 (Pharsight, Mountain View, Calif.). Bioavailability of the oral formulation of each compound were calculated as the ratio of the oral dose normalized AUCinf to the intravenous dose normalized AUCinf. Results are expressed in Table 2.

[3] = In vivo pharmacokinetic study, rat; conditions: for DNAUC / T 1/2: Rat; for clearance / Vd / bioavailability: rat, blood; for clearance / Vd: intravenous; for Vd: read-out: Vss; for bioavailability: oral
Description: as §1

[4] = In vivo pharmacokinetic study, dog; conditions: for DNAUC / T 1/2: Dog; for clearance / Vd / bioavailability: dog, blood; for clearance / Vd: intravenous; for Vd: read-out: Vss; for bioavailability: oral
Description: as §1

[5] = In vivo pharmacokinetic study, mouse; conditions: for clearance / Vd / bioavailability: blood; for clearance / Vd: intravenous; for Vd: read-out: Vss; for bioavailability: oral
Description: as §1

[6] = system: sub-genomic HCV NS3-NS5B replicon genotype 1a (Huh-7 cells); experiment: Replicon luciferase cell based assay, genotype 1a; conditions: Hepatitis C virus; Huh-7 genotype 1a luciferase replicon, 48 hours; read-out: EC50 GT 1a
Description: (§2) 150 μL of a 1 mM stock solution in DMSO of each test compound was transferred into in the first column of a 96 well, V-bottom microplate, to give 200 times the top concentration of the required dilution series. Aliquots of 50 μL were added to each well of the remaining rows containing 100 μL of DMSO giving a 1:3 dilution series over ten points. Columns 11 and 12 contained DMSO only for the positive and negative control, respectively. 10 μL of each well were transferred into 90 μL of DMEM medium (Invitrogen #41965-039) supplemented with 5% v/v foetal calf serum, 1% v/v non-essential amino acids solution, 100 units/ml penicillin, 100 μg/ml streptomycin and 2 mM L-glutamine to give 20 times the top concentration of the required dilution series.
(§3) Suspensions were prepared from cultures of Huh-7 cells stably transfected with sub-genomic HCV NS3-NS5B replicons of either genotype 1b (the ET subline described by Pietschmann, T., Lohmann, V., Kaul, A., Krieger, N., Rinck, G., Rutter, G., Strand, D. & Bartenschlager, R., Journal of Virology, 2002, 76, 4008-4021), genotype 1a (subline 1.19 constructed in-house from H77 SG-Neo containing adaptive mutations P1496L and S2204I as described by Blight, K. J., McKeating, J. A., Marcotrigiano, J., and Rice, C. M. Journal of Virology, 2003, 77, 3180-3190), genotype 1b C316N (constructed in-house by site directed mutagenesis of the NS5B gene of the ET subline), or genotype 1a C316Y (constructed in-house by site directed mutagenesis of the NS5B gene of H77 SG-Neo containing adaptive mutations P1496L and S2204I as described by Blight, K. J., McKeating, J. A., Marcotrigiano, J., and Rice, C. M. Journal of Virology, 2003, 77, 3180-3190) linked to a firefly luciferase reporter gene. Monolayers nearing confluency were stripped from growth flasks with versene-trypsin solution and the cells re-suspended in assay medium comprising DMEM. 95 μL of suspension containing either 15,000 cells (genotype 1b luciferase replicon) or 20,000 cells (genotype 1a luciferase replicon) were added to all wells of a 96 well plate (Perkin Elmer, #6005686), except medium controls in column 12 of the assay plate. The cell suspension was dosed with 5 μL of compound solution and the plate was incubated for 48 hours at 37° C. in a 5% CO2 atmosphere.
(§4) For toxicity the cells in one plate were treated with Cell Titer Glo (Promega, #G7573). A solution of Cell Titer Glo was prepared according to the manufacturer's instructions, and 100 μL added to each well. The plate was then read for luminescence on an Envision. For potency a solution of Steady Glo (Promega, #E2550) was prepared according to the manufacturer's instructions and 100 μL added to each well. After a twenty minute incubation the plate was then read for luminescence on an Envision.
(§5) Potency: The luminescence values from all compound-free wells containing cells were averaged to obtain a positive control value. The mean luminescence value from the compound-free wells that had received no cells was used to provide the negative (background) control value. The readings from the wells at each compound concentration were taken and after the subtraction of the mean background from all values, were expressed as a percentage of the positive control signal. The quantifiable and specific reduction of luciferase signal in the presence of a drug is a direct measure of replicon inhibition. BioAssay Enterprise (CamebridgeSoft) with the XC50 module for curve fitting was used to plot the curve of percentage inhibition against compound concentration and derive the 50% inhibitory concentration (EC50) for the compound. EC50 is the effective concentration, that is, the concentration of compound where 50% maximal effect is observed. The EC50 values of two identical plates were averaged. The results are presented in Table 1 as EC50 for genotypes (GT) 1a, 1b, 1b 316N and 1a 316Y.

[7] = system: sub-genomic HCV NS3-NS5B replicon genotype 1a C316Y (Huh-7 cells); experiment: Replicon luciferase cell based assay, genotype 1a C316Y; conditions: Hepatitis C virus, Huh-7, 48 h, read-out: EC50 1a 316Y
Description: as §2, §3, §4, §5

[8] = system: sub-genomic HCV NS3-NS5B replicon genotype 1b (Huh-7 cells); experiment: Replicon luciferase cell based assay, genotype 1b; conditions: Hepatitis C virus; Huh-7 genotype 1b luciferase replicon, 48 hours; read-out: EC50 GT1b
Description: as §2, §3, §4, §5

[9] = system: sub-genomic HCV NS3-NS5B replicon genotype 1b C316N (Huh-7 cells); experiment: Replicon luciferase cell based assay, genotype 1b C316N; conditions: Hepatitis C virus, Huh-7, 48 h, read-out: EC50 1b 316N
Description: as §2, §3, §4, §5

Row | SMILES | half-life [1] [h] | DNAUC ([2]; Monkey) [ng·h/mL/mg/kg] | T 1/2 ([2]; Monkey) [H] | clearance ([2]; blood) [mL/min/kg] | Vd ([2]; blood) [L/kg] | bioavailability ([2]; blood) [%] | DNAUC [3] [ng·h/mL/mg/kg] | T 1/2 [3] [H] | clearance [3] [mL/min/kg] | Vd [3] [L/kg] | bioavailability [3] [%] | DNAUC [4] [ng·h/mL/mg/kg] | T 1/2 [4] [H] | clearance [4] [mL/min/kg] | Vd [4] [L/kg] | bioavailability [4] [%] | DNAUC ([5]; Mouse (avg)) [ng·h/mL/mg/kg] | T 1/2 ([5]; Mouse (avg)) [H] | clearance ([5]; Mouse (avg)) [mL/min/kg] | Vd ([5]; Mouse (avg)) [L/kg] | other results
1 | CNC(=O)c1c(-c2ccc(F)cc2)oc2cc(N(Cc3cc(F)c4c(c3)COB4O)S(C)(=O)=O)c(C3CC3)cc12 [A] | > 6 | 33 | 2.1 | 70.1 | 6.3 | 13 | 541 | 1.7 | 14.5 | 1 | 47 | 1074 | 5.1 | 12.4 | 3.5 | 71 | 9344 | 4.3 | 0.9 | 0.3 | bioavailability ([5]; Mouse (avg)): 51%
2 | CNC(=O)c1c(-c2ccc(F)cc2)oc2cc(N(c3ccc(B(O)O)c(Cl)c3)S(C)(=O)=O)c(C3CC3)cc12 [Example 1, (2-Chloro-4-(N-(5-cyclopropyl-2-(4-fluorophenyl)-3-(methylcarbamoyl)benzofuran-6-yl)methylsulfonamido)phenyl)boronic acid] | > 6 | 2953 | 3.7 | 2.2 | 0.5 | 51 | 567 | 2.9 | 7.5 | 1.3 | 23 | 6438 | 8.7 | 2.3 | 1.6 | 83 | – | – | – | – | EC50 [6]: 1 to 10 nM; EC50 [7]: 1 to 10 nM; EC50 [8]: 1 to 10 nM; EC50 [9]: 1 to 10 nM; DNAUC ([5]; Mouse): 6688 ng·h/mL/mg/kg; T 1/2 ([5]; Mouse): 5.5 H; clearance ([5]; mouse): 0.9 mL/min/kg; Vd ([5]; mouse): 0.4 L/kg; bioavailability ([5]; mouse): 37%
3 | CNC(=O)c1c(-c2ccc(F)cc2)oc2cc(N(Cc3ccc(B(O)O)c(F)c3)S(C)(=O)=O)c(C3CC3)cc12 [D] | 1.03 | – | – | – | – | – | 403 | 2.2 | 18.6 | 0.8 | 45 | 1147 | 4.5 | 10.8 | 3.6 | 70 | 4108 | 5 | 1.4 | 0.6 | DNAUC ([2]; Monkey (plasma)): 101 ng·h/mL/mg/kg; T 1/2 ([2]; Monkey (plasma)): 1.1 H; clearance ([2]; Monkey (plasma)): 48.4 mL/min/kg; Vd ([2]; Monkey (plasma)): 1.8 L/kg; bioavailability ([2]; Monkey (plasma)): 28%; bioavailability ([5]; Mouse (avg)): 37%
4 | CNC(=O)c1c(-c2ccc(F)cc2)oc2cc(N(c3cc(Cl)c4c(c3)COB4O)S(C)(=O)=O)c(C3CC3)cc12 [Example 15, 6-(N-(7-chloro-1-hydroxy-1,3-dihydrobenzo[c][1,2]oxaborol-5-yl)methylsulfonamido)-5-cyclopropyl-2-(4-fluorophenyl)-N-methylbenzofuran-3-carboxamide] | > 6 | – | 3.7 | 5.7 | 1.2 | – | 1089 | 2.8 | 6.9 | 0.9 | 43 | 11480 | 6.9 | 1.2 | 0.6 | 82 | – | – | – | – | EC50 [6]: 1 to 10 nM; EC50 [7]: 11 to 200 nM; EC50 [8]: 1 to 10 nM; EC50 [9]: 1 to 10 nM; DNAUC ([5]; Mouse): 14603 ng·h/mL/mg/kg; T 1/2 ([5]; Mouse): 8.4 H; clearance ([5]; mouse): 0.7 mL/min/kg; Vd ([5]; mouse): 0.4 L/kg; bioavailability ([5]; mouse): 39%
